Measured values as given in ChEMBL document CHEMBL1201862, “PubChem BioAssay data set” (2004).
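Cultured in 96-well plates, cells were exposed to test compound for 48 hours across five concentrations. The concentration for 50% growth inhibition is given as GI50.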 Calls of active or inactive are those of the source. Rule as the data show it: active = GI50 up to about 1.1 µM and inactive = higher.

Assays:
Assay in all cases: growth of human tumour cells (NCI), 48 h
SK-MEL-28 = tested on: SK-MEL-28
OVCAR-4 = tested on: OVCAR-4
A498 = tested on: A498
RXF 393 = tested on: RXF 393
MDA-N = tested on: MDA-N
BT-549 = tested on: BT-549
SK-MEL-5 = tested on: SK-MEL-5
SNB-19 = tested on: SNB-19
SF-295 = tested on: SF-295
SW-620 = tested on: SW-620
Malme-3M = tested on: Malme-3M
NCI-H460 = tested on: NCI-H460
SK-OV-3 = tested on: SK-OV-3
DU-145 = tested on: DU-145
SF-539 = tested on: SF-539
OVCAR-3 = tested on: OVCAR-3
OVCAR-5 = tested on: OVCAR-5
CAKI-1 = tested on: CAKI-1
SF-268 = tested on: SF-268
HOP-92 = tested on: HOP-92

Row | SMILES | GI50 (SK-MEL-28) | GI50 (OVCAR-4) | GI50 (A498) | GI50 (RXF 393) | GI50 (MDA-N) | GI50 (BT-549) | GI50 (SK-MEL-5) | GI50 (SNB-19) | GI50 (SF-295) | GI50 (SW-620) | GI50 (Malme-3M) | GI50 (NCI-H460) | GI50 (SK-OV-3) | GI50 (DU-145) | GI50 (SF-539) | GI50 (OVCAR-3) | GI50 (OVCAR-5) | GI50 (CAKI-1) | GI50 (SF-268) | GI50 (HOP-92)
1 | O=C(O)C(Cc1ccccc1)Cc1ccccc1 | > 100 µM (inactive) | > 100 µM (inactive) | > 100 µM (inactive) | > 100 µM (inactive) | > 100 µM (inactive) | > 100 µM (inactive) | > 100 µM (inactive) | > 100 µM (inactive) | > 100 µM (inactive) | > 100 µM (inactive) | > 100 µM (inactive) | > 100 µM (inactive) | > 100 µM (inactive) | > 100 µM (inactive) | > 100 µM (inactive) | > 100 µM (inactive) | > 100 µM (inactive) | > 100 µM (inactive) | > 100 µM (inactive) | 
2 | CCCCCCCCCCCCCCCCCCNC(=S)N/C=C1/C(=O)C=C(C)OC1=O | 32.4 µM (inactive) | 23.7 µM (inactive) |  |  | 36.4 µM (inactive) | 19.1 µM (inactive) | 29.6 µM (inactive) | 20.4 µM (inactive) | 23.8 µM (inactive) | 27.4 µM (inactive) |  | 13.1 µM (inactive) | 58.2 µM (inactive) | 24.9 µM (inactive) | 24.3 µM (inactive) | 32.1 µM (inactive) | 18.4 µM (inactive) | 23.4 µM (inactive) |  | 27.3 µM (inactive)
3 | COc1cc(C2C(C#N)=C(N)OC3=C2CCS(=O)(=O)c2ccc(C)cc23)cc(OC)c1OC (stereo not given) | > 100 µM (inactive) | > 100 µM (inactive) | > 100 µM (inactive) |  | > 100 µM (inactive) | > 100 µM (inactive) | > 100 µM (inactive) | > 100 µM (inactive) |  | > 100 µM (inactive) | > 100 µM (inactive) | > 100 µM (inactive) |  | > 100 µM (inactive) |  | > 100 µM (inactive) | > 100 µM (inactive) | > 100 µM (inactive) | > 100 µM (inactive) | > 100 µM (inactive)
4 | Nc1nc2cc(Cl)ccc2n1N | > 100 µM (inactive) |  | > 100 µM (inactive) | 67 µM (inactive) | > 100 µM (inactive) | 45.5 µM (inactive) | > 100 µM (inactive) | > 100 µM (inactive) | > 100 µM (inactive) | > 100 µM (inactive) | > 100 µM (inactive) |  | 33.8 µM (inactive) | > 100 µM (inactive) | > 100 µM (inactive) |  | > 100 µM (inactive) | > 100 µM (inactive) | > 100 µM (inactive) | 
5 | O=C(O)c1cccc(CN2CCCCC2)c1 | > 100 µM (inactive) | > 100 µM (inactive) | > 100 µM (inactive) | > 100 µM (inactive) | > 100 µM (inactive) | > 100 µM (inactive) | > 100 µM (inactive) | > 100 µM (inactive) | > 100 µM (inactive) | > 100 µM (inactive) | > 100 µM (inactive) | > 100 µM (inactive) | > 100 µM (inactive) | > 100 µM (inactive) |  | > 100 µM (inactive) | > 100 µM (inactive) | > 100 µM (inactive) | > 100 µM (inactive) | 
6 | Cn1c(S)nc2c(Cl)cc(Cl)cc2c1=O | > 100 µM (inactive) | > 100 µM (inactive) |  | > 100 µM (inactive) | > 100 µM (inactive) | > 100 µM (inactive) | 99.5 µM (inactive) | > 100 µM (inactive) | > 100 µM (inactive) | > 100 µM (inactive) |  | > 100 µM (inactive) | 74 µM (inactive) | > 100 µM (inactive) | 42.8 µM (inactive) | > 100 µM (inactive) | > 100 µM (inactive) | 67.9 µM (inactive) | > 100 µM (inactive) | 63.5 µM (inactive)
7 | CN(C(=O)Cc1cc(Cl)c(Cl)cc1NC(=O)CCCN)[C@H]1CCCC[C@@H]1N1CCCC1 | 17.1 µM (inactive) | 86.3 µM (inactive) | 17.3 µM (inactive) | 16.1 µM (inactive) | 16.7 µM (inactive) | 71.9 µM (inactive) | 16.1 µM (inactive) | 19.8 µM (inactive) | 58.2 µM (inactive) | 28.6 µM (inactive) | 17.1 µM (inactive) |  | 95.5 µM (inactive) | > 100 µM (inactive) |  | > 100 µM (inactive) | 37.8 µM (inactive) | > 100 µM (inactive) | 13.9 µM (inactive) | 
8 | CCN(CC)CCO/N=C1\CC[C@H]2[C@@H]3CC=C4C[C@@H](O)CC[C@]4(C)[C@H]3CC[C@]12C | 15.7 µM (inactive) | 25.5 µM (inactive) | 18.5 µM (inactive) | 17.5 µM (inactive) | 23 µM (inactive) | 16.8 µM (inactive) | 12.1 µM (inactive) | 31.4 µM (inactive) | 19.5 µM (inactive) | 15.1 µM (inactive) | 16.1 µM (inactive) | 14.9 µM (inactive) |  | 18.9 µM (inactive) | 13.6 µM (inactive) | 19.5 µM (inactive) | 33 µM (inactive) | 14.5 µM (inactive) | 34 µM (inactive) | 
9 | OCCOCCN1CCN(c2nc(N3CCCC3)c3nc(Cl)c(NCc4ccccc4)nc3n2)CC1 | 14.4 µM (inactive) | 15 µM (inactive) |  | 1.98 µM (inactive) | 10.3 µM (inactive) | 15.3 µM (inactive) | 5.55 µM (inactive) | 15.3 µM (inactive) | 14.5 µM (inactive) | 17.7 µM (inactive) | 15.8 µM (inactive) | 11.5 µM (inactive) | 17.2 µM (inactive) | 11.9 µM (inactive) | 24.8 µM (inactive) | 13.8 µM (inactive) | 15.1 µM (inactive) | 16 µM (inactive) | 16.5 µM (inactive) | 12.9 µM (inactive)
10 | Cc1ccc([N+](=O)[O-])cc1S(=O)(=O)Nc1ccc(C(=O)/C=C/c2ccccc2)cc1 | 23.4 µM (inactive) | 1.96 µM (inactive) |  | 11.4 µM (inactive) | 20.2 µM (inactive) | 17.7 µM (inactive) | 16.3 µM (inactive) | 18.6 µM (inactive) | 20.3 µM (inactive) | 24.7 µM (inactive) | 18.5 µM (inactive) | 18.1 µM (inactive) | 31.3 µM (inactive) | 15.8 µM (inactive) | 30.5 µM (inactive) | 15.7 µM (inactive) | 25.6 µM (inactive) | 22.2 µM (inactive) | 24.3 µM (inactive) | 15.9 µM (inactive)
11 | COc1cc(N(CCC#N)CCC#N)ccc1C(/N=N/c1ccccc1C)=N\NC(=O)c1ccc(C)cc1 | > 100 µM (inactive) | 59.8 µM (inactive) |  | > 100 µM (inactive) | 23.8 µM (inactive) | 98.2 µM (inactive) | > 100 µM (inactive) | 63 µM (inactive) | > 100 µM (inactive) | 72.9 µM (inactive) | 34.7 µM (inactive) | 73.5 µM (inactive) | > 100 µM (inactive) | > 100 µM (inactive) |  | 24.2 µM (inactive) | > 100 µM (inactive) | > 100 µM (inactive) | 64.4 µM (inactive) | 53.8 µM (inactive)
12 | CC1/C(=N/O)CC(c2ccccc2)N(N=O)C1c1ccccc1 (stereo not given) | > 100 µM (inactive) | > 100 µM (inactive) |  | > 100 µM (inactive) | > 100 µM (inactive) | > 100 µM (inactive) | > 100 µM (inactive) | > 100 µM (inactive) | > 100 µM (inactive) | > 100 µM (inactive) | > 100 µM (inactive) | > 100 µM (inactive) | 82.4 µM (inactive) | > 100 µM (inactive) | > 100 µM (inactive) | > 100 µM (inactive) |  | > 100 µM (inactive) | > 100 µM (inactive) | > 100 µM (inactive)
13 | C=C1CC(C#N)(C#N)[C@@H]2CC3CCCC3[C@H]12.C=C1CC(C#N)(C#N)[C@H]2C3CCCC3C[C@@H]12 (stereo not given in full) | 21.2 µM (inactive) |  | 19.7 µM (inactive) | 22.1 µM (inactive) |  | 25.9 µM (inactive) | 24.7 µM (inactive) | 29.8 µM (inactive) | 18.3 µM (inactive) | 15 µM (inactive) |  | 10 µM (inactive) | 25.4 µM (inactive) | 38.4 µM (inactive) | 19.9 µM (inactive) | 19.3 µM (inactive) | 10 µM (inactive) |  | 23.3 µM (inactive) | 11.3 µM (inactive)
14 | COc1ccc(/C=C(\C#N)c2nc(-c3cc4ccccc4oc3=O)cs2)cc1 | 27.5 µM (inactive) | 23.9 µM (inactive) |  | 21.1 µM (inactive) | 44.5 µM (inactive) | 14.2 µM (inactive) | 22.1 µM (inactive) | 16.4 µM (inactive) | 21.9 µM (inactive) | 19.7 µM (inactive) | 20.1 µM (inactive) | 21.4 µM (inactive) | 16.4 µM (inactive) | 65.2 µM (inactive) | 21 µM (inactive) |  | 51.1 µM (inactive) | 76 µM (inactive) | 17.9 µM (inactive) | 18.3 µM (inactive)
15 | CCc1nc(N)nc(N)c1-c1ccc(Cl)c(Cl)c1 [ETOPRINE] | > 100 µM (inactive) | > 100 µM (inactive) | > 100 µM (inactive) | 59.3 µM (inactive) |  | 51.3 µM (inactive) | 4.65 µM (inactive) | 25.2 µM (inactive) | 0.738 µM (active) | 5.32 µM (inactive) | 5.79 µM (inactive) | 0.506 µM (active) | > 100 µM (inactive) | 11 µM (inactive) | 5.16 µM (inactive) | 24.9 µM (inactive) | 7.06 µM (inactive) | 32 µM (inactive) | 6.62 µM (inactive) | 13.3 µM (inactive)
